The test concerns the target Reverse transcriptase protein (Human immunodeficiency virus 1, UniProt Q9WJQ1). Nature of the test: In-vitro HIV-1 RT Screening. The method, then:
The reaction mixture was set with template primer complex, RT enzyme and dNTPs in a lysis buffer with or without inhibitors. The reaction mixture was incubated at 37 °C for 1 h and then transferred to streptavidine-coated microtitre plate (MTP). The biotin-labeled dNTPs that were incorporated in the template due to activity of RT, bound to streptavidine. The unbound dNTPs were washed using wash buffer and anti-DIG-POD was added to the MTP. The DIG-labeled dNTPs incorporated in the template were bound to an anti-DIG-POD antibody. The unbound anti-DIG-POD was washed again with washing buffer and the peroxide substrate (ABST) was added to the MTP. A colored reaction product was produced during the cleavage of the substrate catalyzed by a peroxide enzyme.

The term IC50 denotes the point on the concentration scale where inhibition reaches its midpoint. Low values mean greater potency in that assay, high ones weaker potency in that assay. As for `O=C(Nc1ccccc1F)OC(CN1CCCc2ccccc21)c1ccc(Cl)cc1` (configuration not stated) [1-(4-chlorophenyl)-2-(3,4-dihydroquinolin-1(2H)-yl)ethyl 2-fluorophenylcarbamate (6e)], the IC50 was found to be 90.3 µM.

With `O=C(Nc1cccc(F)c1)OC(CN1CCCc2ccccc21)c1ccc(Cl)cc1` (configuration not stated) [1-(4-chlorophenyl)-2-(3,4-dihydroquinolin-1(2H)-yl)ethyl 3-fluorophenylcarbamate (6f)], the IC50 came to 72.1 µM.

Molecule `O=C(Nc1cccc([N+](=O)[O-])c1)OC(CN1CCCc2ccccc21)c1ccc(Cl)cc1` (configuration not stated) [1-(4-chlorophenyl)-2-(3,4-dihydroquinolin-1(2H)-yl)ethyl 3-nitrophenylcarbamate (6i)] yielded an IC50 of 14.9 µM.

In turn, `O=C(Nc1ccc(Cl)cc1)OC(CN1CCCc2ccccc21)c1ccc(Cl)cc1` (configuration not stated) [1-(4-chlorophenyl)-2-(3,4-dihydroquinolin-1(2H)-yl)ethyl 4-chlorophenylcarbamate (6h)] gave an IC50 of 23.8 µM.

Turning to `O=C(Nc1ccc(F)cc1)OC(CN1CCCc2ccccc21)c1ccc(Cl)cc1` (configuration not stated) [1-(4-chlorophenyl)-2-(3,4-dihydroquinolin-1(2H)-yl)ethyl 4-fluorophenylcarbamate (6g)], the IC50 was 48.6 µM.

Regarding `O=C(Nc1ccc([N+](=O)[O-])cc1)OC(CN1CCCc2ccccc21)c1ccc(Cl)cc1` (configuration not stated) [1-(4-chlorophenyl)-2-(3,4-dihydroquinolin-1(2H)-yl)ethyl 4-nitrophenylcarbamate (6j)], the IC50 amounted to 5.42 µM.

`Cc1cccc(NC(=O)OC(CN2CCCc3ccccc32)c2ccc(Cl)cc2)c1` (configuration not stated) [1-(4-chlorophenyl)-2-(3,4-dihydroquinolin-1(2H)-yl)ethyl m-tolylcarbamate (6c)] returned an IC50 of 68.3 µM.

For the molecule `Cc1ccccc1NC(=O)OC(CN1CCCc2ccccc21)c1ccc(Cl)cc1` (configuration not stated) [1-(4-chlorophenyl)-2-(3,4-dihydroquinolin-1(2H)-yl)ethyl o-tolylcarbamate (6b)], the IC50 was 8.12 µM.

Consider `Cc1ccc(NC(=O)OC(CN2CCCc3ccccc32)c2ccc(Cl)cc2)cc1` (configuration not stated) [1-(4-chlorophenyl)-2-(3,4-dihydroquinolin-1(2H)-yl)ethyl p-tolylcarbamate (6d)], for which the IC50 turned out to be 83.6 µM.

Consider `O=C(Nc1ccccc1)OC(CN1CCCc2ccccc21)c1ccc(Cl)cc1` (configuration not stated) [1-(4-chlorophenyl)-2-(3,4-dihydroquinolin-1(2H)-yl)ethyl phenylcarbamate (6a)], for which the IC50 came to 37 µM.

As to `CCOC(=O)c1ccc(NC(=O)OC(CN2CCCc3ccccc32)c2ccc(Cl)cc2)cc1` (configuration not stated) [Ethyl4-((1-(4-chlorophenyl)-2-(3,4-dihydroquinolin-1(2H)-yl)ethoxy)carbonylamino) benzoate (6l)], the IC50 is 12.3 µM.

The molecule `CCOC(=O)c1ccccc1NC(=O)OC(CN1CCCc2ccccc21)c1ccc(Cl)cc1` (configuration not stated) [Ethyl 2-((1-(4-chlorophenyl)-2-(3,4-dihydroquinolin-1(2H)-yl)ethoxy)carbonylamino) benzoate (6k)] showed an IC50 of 39 µM.

The record behind these values is BindingDB's records for doi:10.1016/j.bioorg.2015.12.005 (Birla Institute of Technology, 2016).
